Test results reported in the supplement of paper PMC10307832.

Assays:
Assay in all cases: relative viability (nuclei count vs DMSO), 5 days (fraction); higher = more cells survive
[1] = compound: COC1=CC=C(C=C1)CN2C=CC3=C2C=C(C=C3)C(=O)NO + Nc1ncn([C@H]2C[C@H](O)[C@@H](CO)O2)c(=O)n1 [Decitabine] (partner 2 µM)
In short: (§1)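 Relative viability was taken as the ratio of nuclei in treated wells to nuclei in vehicle wells. Lung cancer cell lines in 1536-well plates received compounds by pin tool one day after seeding, either one drug alone or a fixed anchor-drug dose plus five library-drug doses (not always all listed) in √10 steps. Nuclei were counted on 4× images after 5 days of treatment, and values are medians of duplicate plates.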

[2] = compound: COC1=CC=C(C=C1)CN2C=CC3=C2C=C(C=C3)C(=O)NO + CCNC(=O)c1noc(-c2cc(C(C)C)c(O)cc2O)c1-c1ccc(CN2CCOCC2)cc1 [Luminespib] (partner 0.01 µM)
In short: as §1

[3] = compound: COC1=CC=C(C=C1)CN2C=CC3=C2C=C(C=C3)C(=O)NO + N=C(N)NC(=N)NCCc1ccccc1 [Phenformin] (partner 250 µM)
In short: as §1

Veliparib + Linsitinib = compound: C[C@]1(c2nc3c(C(N)=O)cccc3[nH]2)CCCN1 [Veliparib] + C[C@]1(O)C[C@@H](c2nc(-c3ccc4ccc(-c5ccccc5)nc4c3)c3c(N)nccn32)C1 [Linsitinib] (partner 1 µM)
In short: as §1

Cell Line | relative viability ([1]; first compound 0.08 µM) | relative viability ([1]; first compound 0.253 µM) | relative viability ([1]; first compound 0.8 µM) | relative viability ([1]; first compound 2.53 µM) | relative viability ([1]; first compound 8 µM) | relative viability ([2]; first compound 0.08 µM) | relative viability ([2]; first compound 0.253 µM) | relative viability ([2]; first compound 0.8 µM) | relative viability ([2]; first compound 2.53 µM) | relative viability ([2]; first compound 8 µM) | relative viability ([3]; first compound 0.253 µM) | relative viability ([3]; first compound 0.8 µM) | relative viability ([3]; first compound 2.53 µM) | relative viability ([3]; first compound 8 µM) | relative viability (Veliparib + Linsitinib; first compound 0.06325 µM) | relative viability (Veliparib + Linsitinib; first compound 0.2 µM) | relative viability (Veliparib + Linsitinib; first compound 0.6325 µM) | relative viability (Veliparib + Linsitinib; first compound 2 µM) | relative viability (Veliparib + Linsitinib; first compound 0.02 µM) | relative viability ([3]; first compound 0.08 µM)
NCI-H1648 | 0.435 | 0.553 | 0.554 | 0.539 | 0.46 | – | – | – | – | – | – | – | – | – | – | – | – | – | – | –
NCI-H358 | – | 0.221 | 0.292 | 0.197 | 0.179 | 0.25 | 0.428 | 0.374 | 0.434 | 0.213 | 0.351 | 0.411 | 0.314 | 0.267 | 0.815 | 0.775 | 0.667 | 0.772 | – | –
IA-LM | – | – | – | – | – | – | – | – | – | – | – | – | – | – | 0.494 | 0.538 | 0.544 | 0.708 | 0.411 | –
201T | 0.843 | 0.867 | 0.856 | 0.863 | 0.817 | 1.05 | 1.13 | 1.07 | 1.05 | 0.987 | 0.466 | 0.453 | 0.431 | 0.35 | 1.06 | 0.995 | 1.02 | 1.01 | 1.08 | 0.487
LOU-NH91 | – | 0.828 | 0.831 | 0.851 | 0.824 | 0.316 | 0.345 | 0.322 | 0.341 | 0.359 | 0.678 | 0.702 | 0.766 | 0.637 | 0.932 | 0.971 | 0.901 | 1.02 | 0.9 | 0.612
ChaGo-K-1 | – | 0.502 | 0.526 | 0.525 | 0.488 | – | 0.69 | 0.494 | 0.601 | 0.409 | 0.539 | 0.484 | 0.438 | 0.374 | – | – | – | – | – | –
NCI-H441 | 0.258 | 0.239 | 0.258 | 0.237 | 0.276 | 0.27 | 0.322 | 0.37 | 0.422 | 0.322 | 0.89 | 0.907 | 0.863 | 0.653 | 0.589 | 0.563 | 0.584 | 0.541 | 0.506 | 0.914
ABC-1 | – | 1.16 | 1.21 | 1.21 | 0.929 | – | 0.844 | 0.391 | 0.435 | 0.391 | 0.216 | 0.246 | 0.296 | 0.234 | 0.767 | 0.807 | 0.759 | 0.892 | – | –
NCI-H661 | – | 0.591 | 0.61 | 0.519 | 0.44 | – | 0.873 | 0.883 | 0.88 | 0.765 | 0.271 | 0.313 | 0.272 | 0.29 | 0.59 | 0.604 | 0.496 | 0.666 | 0.4 | –
BEN | 0.677 | 0.726 | 0.702 | 0.664 | 0.618 | 0.427 | 0.286 | 0.23 | 0.354 | 0.218 | 0.224 | 0.263 | 0.269 | 0.259 | 0.875 | 1.15 | 0.928 | 0.946 | 0.803 | 0.267
UMC-11 | – | 0.369 | 0.595 | 0.575 | 0.509 | – | 1.13 | 0.98 | 0.904 | 1.01 | 0.356 | 0.331 | 0.286 | 0.309 | 1 | 1.08 | 0.963 | 0.961 | 1.06 | –
NCI-H2023 | 0.201 | 0.234 | 0.272 | 0.244 | 0.173 | 0.67 | 0.885 | 0.724 | 0.586 | 0.553 | 0.409 | 0.383 | 0.392 | 0.299 | 0.692 | 0.677 | 0.538 | 0.658 | 0.712 | 0.38
NCI-H2126 | 0.574 | 0.535 | 0.578 | 0.585 | 0.621 | 0.839 | 0.967 | 0.944 | 0.917 | 0.881 | 0.52 | 0.544 | 0.584 | 0.517 | 0.668 | 0.701 | 0.661 | 0.733 | 0.715 | 0.516
EMC-BAC-2 | 0.606 | – | 1.02 | 0.968 | 0.876 | 0.964 | 1.25 | 1.16 | 1.21 | 1.11 | 0.543 | 0.422 | 0.526 | 0.449 | 0.801 | 0.886 | 0.793 | 0.828 | 0.841 | 0.367
NCI-H838 | 0.441 | 0.455 | 0.476 | 0.456 | 0.505 | – | 0.315 | 0.364 | 0.354 | 0.381 | 0.589 | 0.6 | 0.628 | 0.456 | 0.981 | 1.03 | 0.888 | 1.1 | 1.07 | –
NCI-H322M | – | – | 0.716 | 0.66 | 0.69 | – | 0.867 | 0.909 | 0.841 | 0.664 | 0.821 | 0.762 | 0.737 | 0.763 | 0.864 | 0.885 | 0.826 | 0.972 | 1.03 | –
HCC-15 | 0.529 | 0.718 | 0.742 | 0.714 | 0.642 | 0.319 | 0.277 | 0.304 | 0.45 | 0.34 | 0.515 | 0.486 | 0.483 | 0.408 | 0.84 | 0.909 | 0.83 | 0.921 | 0.928 | 0.344
NCI-H1395 | – | 0.701 | 0.758 | 0.842 | 0.618 | 0.662 | 0.659 | 0.628 | 0.708 | 0.604 | 0.463 | 0.469 | 0.407 | 0.413 | 0.987 | 0.853 | 0.745 | 0.716 | – | 0.37
NCI-H596 | 1.04 | 1.78 | 1.15 | 0.922 | 1 | 0.934 | 0.955 | 0.972 | 1.01 | 0.863 | 0.99 | 0.769 | 0.655 | 0.666 | 1.02 | 1.07 | 0.893 | 0.99 | 1 | 0.774
